# Data as given in US6815546B2, “Analogues of camptothecin, their use as medicaments and the pharmaceutical compositions containing them” (Societe de Recherches et d'Applications Scientifiques …, priority 1995, dated 2004).
# Assays:
# Format in all cases: cell-based
# [1] = test system: L1210 (mouse lymphocytic leukemia); assay: Test on cell proliferation (MTT test), L1210; settings: 48 hours
# Experimental: (§1) a. Eight tumoral cell lines are used in this study: L1210 (mouse lymphocytic leukemia), HCT15 and LOVO (cell lines of human colon adenocarcinoma), A549 (human lung carcinoma), A172, U373 et U87 (human glioblastoma). All these lines are obtained from the American Type Culture Collection (ATCC), Rockville, Md. The L1210 cell cultures in suspension are cultured in Dulbecco's modified Eagle's medium (DMEM) (BioWhitaker, Verviers, Belgium) together with 10% of foetal calf serum inactivated by heating, 2 mM of glutamine, 50 μg/ml of penicillin and 50 μg/ml of streptomycin. The HT29 cells are cultured in mono-layer cultures in a McCoy 5a medium (Gibco, Paisley, United Kingdom) together with 10% of foetal calf serum inactivated by heat plus 2 mM of glutamine and 50 μg/ml of gentamycin. The other cells are cultured in an Earle's modified essential medium (EMEM; Gibco, Paisley, United Kingdom) together with 5% foetal calf serum inactivated by heat, 2 mM of glutamine, 50 U/ml of penicillin and 50 μg/ml of streptomycin. All the cell lines are cultured at 37° C. in a humidified atmosphere containing 95% air and 5% CO2.
# (§2) Inhibition of the tumor cell line proliferation is determined using an MTT test. 1500 L1210 cells in a culture medium (according to the needs of the cell medium) are seeded in a well of a micro-well plate (tissue culture level: 96 wells, flat bottom) 24 hours before treatment with the compounds to be tested. For these dose-response studies, the cells are incubated with each of the compounds to be tested or their corresponding solvent (controls) for 48 hours over a final concentration range of 1.10^−10 to 1.10^−4 M. All the compounds are dissolved just before use in dimethylsulphoxide (DMSO) at a concentration of 50 mM. Other dilutions of the medicaments are carried out in the culture medium. The final concentration of DMSO never exceeds 0.2% (v/v). As controls, the solutions of medicaments are replaced with the solvent which is diluted successively in the same way as the compounds to be tested.
# (§3) After the incubation period, the labeling reagent MTT (3-[4,5-dimethylthiazol-2-yl]-2,5-diphenyltetrazolium bromide; Thiazol blue, Sigma M 565, Sigma, St Louis, Mo.) is added at a final concentration of 0.3 mg/ml to each well. The cells are incubated for 4 hours at 37° C. in a humidified atmosphere. This stage allows the mitochondrial dehydrogenase of the living cells to convert the yellow tetrazolium salt MTT into crimson formazan crystals. The supernatant part is eliminated and the formazan crystals formed are solubilized with DMSO. The resultant coloured solution is quantified by absorbance at 570 nm by using a multi-cuvette scanning spectrophotometer. The data concerning the proliferation is expressed as a percentage of living cells in the treated wells, divided by the living cells in the controls. Each point represents the average of three independent experiments, each experiment represents six determinations.
# (§4) The results are expressed as percentages of the calculated proliferation by the optical density (OD) of the cells treated with a medicament divided by the OD of the control cells (cells treated with DMSO). As represented in Table II, the compounds to be tested have inhibited the proliferation of cells in a dose-dependent manner.
# [2] = test system: HCT15 (cell lines of human colon adenocarcinoma); assay: Test on cell proliferation (MTT test), HCT15; settings: 72 hours
# Experimental: as §1, §2, §3
# (§5) For the other cell lines (HCT15, LOVO, A549, A172, U373, U87), 1000 to 2000 cells are seeded in the well of a micro-well plate 24 hours before medicinal treatment. […]
# as §4
# [3] = test system: A172 (human glioblastoma); assay: Test on cell proliferation (MTT test), A172; settings: 72 hours
# Experimental: as §1, §2, §3, §5, §4
# [4] = test system: U373 (human glioblastoma); assay: Test on cell proliferation (MTT test), U373; settings: 72 hours
# Experimental: as §1, §2, §3, §5, §4
smiles,measurement,setting,value
"CCC1(O)CC(=O)OCc2c1cc1n(c2=O)Cc2cc3cc4c(cc3nc2-1)OCCO4 (stereo not shown) [Example 11, 8-ethyl-8-hydroxy-2,3,8,9,12,15-hexahydro-10H,13H-[1,4]dioxino [2,3-g]oxepino[3′,4′:6,7]indolizino[1,2-b]quinoline-10,13-dione]",PERCENTAGE OF CELL PROLIFERATION,[1]; 0.1 nM,91.99%
same,PERCENTAGE OF CELL PROLIFERATION,[1]; 1 nM,81.37%
same,PERCENTAGE OF CELL PROLIFERATION,[1]; 10 nM,23.16%
same,PERCENTAGE OF CELL PROLIFERATION,[1]; 100 nM,16.83%
same,PERCENTAGE OF CELL PROLIFERATION,[1]; 1 000 nM,5.59%
same,PERCENTAGE OF CELL PROLIFERATION,[1]; 10 000 nM,1.45%
same,PERCENTAGE OF CELL PROLIFERATION,[1]; 100 000 nM,1.04%
same,PERCENTAGE OF CELL PROLIFERATION,[2]; 0.1 nM,71.00%
same,PERCENTAGE OF CELL PROLIFERATION,[2]; 1 nM,63.00%
same,PERCENTAGE OF CELL PROLIFERATION,[2]; 10 nM,45.00%
same,PERCENTAGE OF CELL PROLIFERATION,[2]; 100 nM,23.00%
same,PERCENTAGE OF CELL PROLIFERATION,[2]; 1 000 nM,12.00%
same,PERCENTAGE OF CELL PROLIFERATION,[2]; 10 000 nM,9.00%
same,PERCENTAGE OF CELL PROLIFERATION,[2]; 100 000 nM,9.00%
same,PERCENTAGE OF CELL PROLIFERATION,[3]; 0.1 nM,95.00%
same,PERCENTAGE OF CELL PROLIFERATION,[3]; 1 nM,53.00%
same,PERCENTAGE OF CELL PROLIFERATION,[3]; 10 nM,47.00%
same,PERCENTAGE OF CELL PROLIFERATION,[3]; 100 nM,39.00%
same,PERCENTAGE OF CELL PROLIFERATION,[3]; 1 000 nM,12.00%
same,PERCENTAGE OF CELL PROLIFERATION,[3]; 10 000 nM,3.00%
same,PERCENTAGE OF CELL PROLIFERATION,[3]; 100 000 nM,2.00%
same,PERCENTAGE OF CELL PROLIFERATION,[4]; 0.1 nM,50.00%
same,PERCENTAGE OF CELL PROLIFERATION,[4]; 1 nM,30.00%
same,PERCENTAGE OF CELL PROLIFERATION,[4]; 10 nM,25.00%
same,PERCENTAGE OF CELL PROLIFERATION,[4]; 100 nM,8.00%
same,PERCENTAGE OF CELL PROLIFERATION,[4]; 1 000 nM,2.00%
same,PERCENTAGE OF CELL PROLIFERATION,[4]; 10 000 nM,1.00%
same,PERCENTAGE OF CELL PROLIFERATION,[4]; 100 000 nM,2.00%
